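96-well plates; 48 h exposure; 5 concentrations. Endpoints by linear interpolation between flanking doses. Not reached: highest tested concentration assigned. Abbreviation: GI50, concentration required for 50% inhibition of growth. At the TGI there is no net growth.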
Columns and labels:
Test in all cases: NCI-60 cell line screen, 48 h
SK-MEL-5 melanoma = system: SK-MEL-5 melanoma
OVCAR-4 ovarian = system: OVCAR-4 ovarian
NCI-H226 lung = system: NCI-H226 lung
PC-3 prostate = system: PC-3 prostate
A549 NSCLC = system: A549 NSCLC
NCI-H23 lung = system: NCI-H23 lung
TK-10 renal = system: TK-10 renal
NCI/ADR-RES ovarian = system: NCI/ADR-RES ovarian
SNB-19 CNS = system: SNB-19 CNS
SR leukemia = system: SR leukemia

Compound | GI50 (SK-MEL-5 melanoma) | TGI (SK-MEL-5 melanoma) | GI50 (OVCAR-4 ovarian) | TGI (OVCAR-4 ovarian) | GI50 (NCI-H226 lung) | TGI (NCI-H226 lung) | GI50 (PC-3 prostate) | TGI (PC-3 prostate) | GI50 (A549 NSCLC) | TGI (A549 NSCLC) | GI50 (NCI-H23 lung) | TGI (NCI-H23 lung) | GI50 (TK-10 renal) | TGI (TK-10 renal) | GI50 (NCI/ADR-RES ovarian) | TGI (NCI/ADR-RES ovarian) | GI50 (SNB-19 CNS) | TGI (SNB-19 CNS) | GI50 (SR leukemia) | TGI (SR leukemia)
Cc1cccc(Oc2ccc(Nc3ncnc4ccc(NC(=O)CN(C)C)cc34)cc2Cl)c1 | 1.64 µM | 3.03 µM | 1.7 µM | 5.59 µM | 11.9 µM | 28.3 µM | 2.02 µM | 6.32 µM | 1.91 µM | 10.1 µM | 2.95 µM | 11.6 µM | 1.1 µM | 3.57 µM | 2.83 µM | 14.2 µM | 2.11 µM | 6.35 µM |  | 
O=C1Nc2ccc(Cl)cc2/C1=N/c1nc(-c2ccc(Cl)cc2)cs1 |  |  | 1.39 µM | > 100 µM |  |  |  |  |  |  |  |  | 2.88 µM | 6.13 µM |  |  |  |  | 2.74 µM | > 100 µM
O=C1c2ccccc2C2(O)N(c3ccccc3)C(=S)N(c3ccccc3)C12O (stereo not drawn) |  | > 100 µM |  | > 100 µM |  | > 100 µM |  |  |  | > 100 µM |  | > 100 µM |  | > 100 µM |  |  |  | > 100 µM |  | 
CN(C)CCNC(=O)c1cccc2c1nc(-c1cccnc1)c1ccccc12 |  | 15.1 µM |  | 18.4 µM |  | 16.5 µM |  |  |  | 18.3 µM |  | 15.9 µM |  | 9.74 µM |  |  |  | 36.8 µM |  | 
O=c1c2cc(Br)ccc2nc(CNc2ccccc2)n1-c1ccccc1 |  | 38.1 µM |  | 23 µM |  | 43.9 µM |  |  |  | > 62.7 µM |  | 34.1 µM |  | 45.5 µM |  |  |  | > 72.1 µM |  | > 30.4 µM
CN1S(=O)(=O)N(C)P12(N=P(CP(=NP13(N(C)S(=O)(=O)N1C)N(C)S(=O)(=O)N3C)(c1ccccc1)c1ccccc1)(c1ccccc1)c1ccccc1)N(C)S(=O)(=O)N2C |  | > 100 µM |  |  |  | > 100 µM |  |  |  | > 100 µM |  | > 100 µM |  | > 100 µM |  |  |  | > 100 µM |  | 
CC(C)(C)C1CC[C@H]2c3c([nH]c4ccccc34)[C@H]3C(=O)N(c4ccc(F)cc4)C(=O)[C@H]3[C@H]2C1 (stereo partly drawn) |  | 35.8 µM |  | 23.7 µM |  | 35.3 µM |  |  |  | 26.1 µM |  | 33.4 µM |  | 30.8 µM |  |  |  | 29.8 µM |  | 
O=C1c2ccccc2N1C(=O)c1ccccc1[N+](=O)[O-] |  | > 100 µM |  | > 100 µM |  | > 100 µM |  | > 100 µM |  | > 100 µM |  | > 100 µM |  | > 100 µM |  |  |  | > 100 µM |  | > 100 µM
N#CC1(CCCCl)CCCCC1 |  | > 100 µM |  |  |  |  |  |  |  | > 100 µM |  | > 100 µM |  | > 100 µM |  |  |  | > 100 µM |  | > 100 µM
CC1(C)CC2=NO[Se]3=C2C(=NO3)C1 |  | 3.28 µM |  | 21.7 µM |  | 11.6 µM |  | 3.24 µM |  | 14.2 µM |  | 5.65 µM |  | 19.5 µM |  |  |  | 15.3 µM |  | 
CC(C)CCCC(C)C1CCC2C3CC([N+](=O)[O-])=C4CC(O)CCC4(C)C3CCC12C (stereo not drawn) |  |  |  | 43 µM |  |  |  |  |  | 47.1 µM |  | 48.6 µM |  | 39.6 µM |  |  |  |  |  | 34.1 µM
CCOC(=O)C1C(NC(N)=O)N(Cc2ccccc2)C(=O)N1Cc1ccccc1 (stereo not drawn) |  | > 100 µM |  | > 100 µM |  |  |  |  |  | > 100 µM |  |  |  | > 100 µM |  |  |  | > 100 µM |  | > 100 µM
